Test results: patent publication US20170349879A1, “METHOD FOR CULTURING NORMAL CELLS AND ODONTOMA CELLS CONTAINED IN ORAL TISSUE” (CHIBA UNIVERSITY, priority 2014, published 2017)

Key:
Type in all cases: cell-based, human
[1] = test system: fibroblasts; experiment: Cell culture of fibroblasts using a Rho kinase inhibitor (cell morphology); conditions: inhibitor-containing medium (10 μM); passage 7 with inhibitor vs passage 2 without; FIG. 13
Method: (§1) Odontoma cells, oral mucosal epithelial cells, fibroblasts, and cancer-associated fibroblasts (CAFs) (i) Patient-derived cells for use as a source material were taken in a required amount as described above. (ii) The cells were washed three times with phosphate-buffered physiological saline (PBS) (supplemented with 10 units/ml of penicillin and 100 μg/ml of streptomycin: Sigma-Aldrich). (iii) The cells were cut into small pieces with sterilized iris scissors and a surgical knife (No. 11). (iv) After addition of trypsin (TrypLE Select Enzyme, Gibco, Code No. A12177-01), the cells were shaken at 37° C. for 30 minutes. (v) The cells were mixed with Dulbecco's modified Eagle medium (DMEM: Sigma-Aldrich) (supplemented with 10% fetal bovine serum: Nichirei Bioscience Inc., Japan, 10 units/ml of penicillin and 100 μg/ml of streptomycin), and centrifugation (at 1000 rpm for 5 minutes) was repeated three times. (vi) The cells were mixed with DMEM (supplemented with 10% fetal bovine serum, 10 units/ml of penicillin, 100 μg/ml of streptomycin, 10 μM of the Rock kinase inhibitor and 0.3 μM of L-ascorbic acid 2-phosphate: Sigma-Aldrich) (DMEM+) and then seeded into collagen type I-coated cell culture dishes (IWAKI). (vii) The cells were washed with PBS once every three days to replace the above medium. (viii) The cultured cells were subcultured at 80% confluency. […]

[2] = test system: salivary gland cells; experiment: Analysis of cytomorphological changes by immunocytological fluorescent staining of the cytoskeleton (F-actin); conditions: salivary gland cells in Rock inhibitor-containing medium vs inhibitor-free medium; FIG. 4
Method: In this section, cytomorphological changes caused by the presence or absence of a Rock inhibitor were analyzed by immunocytological fluorescent staining of the cytoskeleton. Analytes were treated by the same experimental procedures as shown in (2.2) above. As an antibody, Acti-stain 670 fluorescent Phallodin (F-actin) (Cytoskeleton) was reacted at room temperature for 1 hour.

[3] = test system: salivary gland cells; experiment: Primary culture and subculture of salivary gland cells using a Rock inhibitor (cell morphology); conditions: Rock inhibitor-containing medium (10 μM), vs standard medium; FIG. 1
Method: as §1, with “(i)” for “Odontoma cells, oral mucosal epithelial cells, fibroblasts, and cancer-associated fibroblasts (CAFs) (i)”, “Patient-derived salivary gland” for “Patient-derived”, “from the labial glands of each patient.” for “as described above.”, “1-coated” for “I-coated”, “(i)” for “(viii)”, “confluency. The cells were washed three times with phosphate-buffered physiological saline.” for “confluency.”

[4] = test system: amylase; experiment: Expression analysis of amylase by quantitative RT-PCR in salivary gland cells; conditions: salivary gland cells repeatedly subcultured in Rock inhibitor-containing medium; relative to GAPDH; FIG. 2
Method: Salivary gland cells were cultured in the presence or absence of a Rock inhibitor and provided for quantitative RT-PCR assay with a LightCycler 480 (Roche) to analyze amylase expression in these salivary gland cells. The primers used for amylase are as shown below, and the universal probe used was #18. The primers used for glyceraldehyde-3-phosphate dehydrogenase (GAPDH) serving as an endogenous control are as shown below, and the universal probe used was #60. The PCR reaction was conducted in accordance with standard protocols by using a mixture (final reaction volume: 20 μl) containing 10 μl of Probe master (Roche), 0.2 μl of each probe master and the primers. The reaction conditions were set to initial denaturation at 95° C. for 5 minutes and 50 amplification cycles of denaturation at 95° C. for 10 seconds, annealing at 60° C. for 30 seconds and elongation reaction at 60° C. for 60 seconds. The mRNA level of the desired gene was expressed as a relative value to the expression level of GAPDH used as a control.

[5] = test system: telomerase reverse transcriptase (TERT); experiment: Quantitative RT-PCR of TERT (immortalization) in salivary gland cells; conditions: salivary gland cells in Rock inhibitor-containing medium; FIG. 6B
Method: Primary cultured salivary gland cells were cultured in a medium containing a Rock inhibitor and analyzed for their proliferation by Western blotting of proliferating cell nuclear antigen (PCNA: Santa Cruz) and for their apoptosis by Western blotting of caspase-3 (CST). For analysis of their immortalization, the expression of telomerase reverse transcriptase (TERT) was analyzed by quantitative RT-PCR assay. Quantitative RT-PCR of TERT was conducted in the same manner as shown in (2.1) above. The primers used are as shown below. The universal probe used was #19.

CC(N)[C@H]1CC[C@H](C(=O)Nc2ccncc2)CC1 (stereo partly drawn) [Rock inhibitor, (R)-(+)-trans-N-(4-pyridyl)-4-(1-aminoethyl)-cyclohexanecarboxamide]
cell morphology of fibroblasts on repeated subculture [1]: maintain their cell morphology even when repeatedly subcultured
cytoskeleton (F-actin) morphology [2]: honeycomb-like skeleton
cell morphology of salivary gland cells on repeated subculture [3]: maintain their cell morphology arranged in a cobblestone pattern even when repeatedly subcultured
mRNA expression of amylase [4]: significantly high
TERT expression [5]: no difference was also observed
